Active and inactive are the calls of the source. The rule behind the calls is not given here.
System: Platelet
Experiment: Antiplatelets aggregatory activity in human platelets rich plasma assessed as inhibition of ADP-induced platelets aggregation by aggregometry
Format: functional, cell-free
Settings: not given

Row | Structure (SMILES) | inhibition
1 | CC(=O)Oc1ccccc1C(=O)O[C@H]1CO[C@H]2[C@@H]1OC[C@H]2OC(=O)c1ccccc1O | Active
2 | CC(=O)Oc1ccccc1C(=O)O[C@H]1CO[C@H]2[C@@H]1OC[C@H]2OC(=O)c1cccc(CO[N+](=O)[O-])c1 | Active

System: Plasma
Experiment: Metabolic stability in 10% human plasma assessed as aspirin release at pH 7.4 by RP-HPLC; also: time not given here
Format: ADME, cell-free
Settings: not given

Row | Structure (SMILES) | Activity [%]
3 | CC(=O)Oc1ccccc1C(=O)O[C@H]1CO[C@H]2[C@@H]1OC[C@H]2OC(=O)c1cccc(O)c1 | 44
4 | CC(=O)Oc1ccccc1C(=O)O[C@H]1CO[C@H]2[C@@H]1OC[C@H]2OC(=O)c1cnccc1Cl | 18
5 | CC(=O)Oc1ccccc1C(=O)O[C@H]1CO[C@H]2[C@@H]1OC[C@H]2OC(=O)c1cccnc1 | 41
6 | CC(=O)Oc1ccccc1C(=O)O[C@H]1CO[C@H]2[C@@H]1OC[C@H]2OC(=O)c1ccccc1CO[N+](=O)[O-] | 32
7 | CC(=O)Oc1ccccc1C(=O)O[C@H]1CO[C@H]2[C@@H]1OC[C@H]2OC(=O)c1ccc(CO[N+](=O)[O-])cc1 | < 5
8 | CC(=O)Oc1ccccc1C(=O)O[C@H]1CO[C@H]2[C@@H]1OC[C@H]2OC(=O)c1ccc(C#N)cc1 | 19
9 | CCC(=O)O[C@@H]1CO[C@H]2[C@@H]1OC[C@@H]2OC(=O)c1ccccc1OC(C)=O | 6.8
10 | CC(=O)Oc1ccccc1C(=O)O[C@H]1CO[C@H]2[C@@H]1OC[C@H]2O | < 0.5
11 | COc1cccc(C(=O)O[C@@H]2CO[C@H]3[C@@H]2OC[C@@H]3OC(=O)c2ccccc2OC(C)=O)c1 | 19
12 | CC(=O)Oc1ccccc1C(=O)O[C@H]1CO[C@H]2[C@@H]1OC[C@H]2OC(=O)c1ccccc1OC(=O)c1ccccc1 | 28
13 | CC(=O)Oc1ccccc1C(=O)O[C@H]1CO[C@H]2[C@@H]1OC[C@H]2OC(=O)C1CC1 | 2
14 | CC(=O)Oc1ccccc1C(=O)O[C@H]1CO[C@H]2[C@@H]1OC[C@H]2OC(=O)c1ccc(C)cc1 | 16
15 | CC(=O)Oc1ccccc1C(=O)O[C@H]1CO[C@H]2[C@@H]1OC[C@H]2OC(=O)c1ccc(-c2ccccc2)cc1 | < 0.5
16 | COc1ccccc1C(=O)O[C@@H]1CO[C@H]2[C@@H]1OC[C@@H]2OC(=O)c1ccccc1OC(C)=O | 5
17 | CC(=O)Oc1ccccc1C(=O)O[C@H]1CO[C@H]2[C@@H]1OC[C@H]2OC(=O)c1cc(C)nc(Cl)c1 | 24
18 | CC(=O)Oc1ccccc1C(=O)O[C@H]1CO[C@H]2[C@@H]1OC[C@H]2OC(=O)c1ccccc1O | 72
19 | CC(=O)Oc1ccccc1C(=O)O[C@H]1CO[C@H]2[C@@H]1OC[C@H]2OC(=O)c1cccc(CO[N+](=O)[O-])c1 | 51

System: not listed separately
Experiment: Metabolic stability in 10% human plasma assessed as half life at pH 7.4 by RP-HPLC
Settings: not given

Row | Structure (SMILES) | half-life [min]
20 | CC(=O)Oc1ccccc1C(=O)O[C@H]1CO[C@H]2[C@@H]1OC[C@H]2OC(=O)c1cccc(O)c1 | 1.1
21 | CC(=O)Oc1ccccc1C(=O)O[C@H]1CO[C@H]2[C@@H]1OC[C@H]2OC(=O)c1cnccc1Cl | 3.85
22 | CC(=O)Oc1ccccc1C(=O)O[C@H]1CO[C@H]2[C@@H]1OC[C@H]2OC(=O)c1cccnc1 | 1.39
23 | CC(=O)Oc1ccccc1C(=O)O[C@H]1CO[C@H]2[C@@H]1OC[C@H]2OC(=O)c1ccccc1CO[N+](=O)[O-] | 2.7
24 | CC(=O)Oc1ccccc1C(=O)O[C@H]1CO[C@H]2[C@@H]1OC[C@H]2OC(=O)c1ccc(CO[N+](=O)[O-])cc1 | 6
25 | CC(=O)Oc1ccccc1C(=O)O[C@H]1CO[C@H]2[C@@H]1OC[C@H]2OC(=O)c1ccc(C#N)cc1 | 5.33
26 | CCC(=O)O[C@@H]1CO[C@H]2[C@@H]1OC[C@@H]2OC(=O)c1ccccc1OC(C)=O | 3.65
27 | CC(=O)Oc1ccccc1C(=O)O[C@H]1CO[C@H]2[C@@H]1OC[C@H]2O | 3.3
28 | COc1cccc(C(=O)O[C@@H]2CO[C@H]3[C@@H]2OC[C@@H]3OC(=O)c2ccccc2OC(C)=O)c1 | 3.15
29 | CC(=O)Oc1ccccc1C(=O)O[C@H]1CO[C@H]2[C@@H]1OC[C@H]2OC(=O)c1ccccc1OC(=O)c1ccccc1 | 23.1
30 | CC(=O)Oc1ccccc1C(=O)O[C@H]1CO[C@H]2[C@@H]1OC[C@H]2OC(=O)C1CC1 | 1.93
31 | CC(=O)Oc1ccccc1C(=O)O[C@H]1CO[C@H]2[C@@H]1OC[C@H]2OC(=O)c1ccc(C)cc1 | 6.3
32 | CC(=O)Oc1ccccc1C(=O)O[C@H]1CO[C@H]2[C@@H]1OC[C@H]2OC(=O)c1ccc(-c2ccccc2)cc1 | > 20
33 | COc1ccccc1C(=O)O[C@@H]1CO[C@H]2[C@@H]1OC[C@@H]2OC(=O)c1ccccc1OC(C)=O | 3.47
34 | CC(=O)Oc1ccccc1C(=O)O[C@H]1CO[C@H]2[C@@H]1OC[C@H]2OC(=O)c1cc(C)nc(Cl)c1 | 1.16
35 | CC(=O)Oc1ccccc1C(=O)O[C@H]1CO[C@H]2[C@@H]1OC[C@H]2OC(=O)c1ccccc1O | 4.95
36 | CC(=O)Oc1ccccc1C(=O)O[C@H]1CO[C@H]2[C@@H]1OC[C@H]2OC(=O)c1cccc(CO[N+](=O)[O-])c1 | 2.6

System: Plasma
Experiment: Metabolic stability in 50% human plasma assessed as aspirin release at pH 7.4 by RP-HPLC; also: time not given here
Format: ADME, cell-free
Settings: not given

Row | Structure (SMILES) | Activity [%]
37 | CC(=O)Oc1ccccc1C(=O)O[C@H]1CO[C@H]2[C@@H]1OC[C@H]2OC(=O)c1cccc(O)c1 | 29
38 | CC(=O)Oc1ccccc1C(=O)O[C@H]1CO[C@H]2[C@@H]1OC[C@H]2OC(=O)c1cnccc1Cl | 17
39 | CC(=O)Oc1ccccc1C(=O)O[C@H]1CO[C@H]2[C@@H]1OC[C@H]2OC(=O)c1cccnc1 | 32
40 | CC(=O)Oc1ccccc1C(=O)O[C@H]1CO[C@H]2[C@@H]1OC[C@H]2OC(=O)c1ccccc1CO[N+](=O)[O-] | 34
41 | CC(=O)Oc1ccccc1C(=O)O[C@H]1CO[C@H]2[C@@H]1OC[C@H]2OC(=O)c1ccc(CO[N+](=O)[O-])cc1 | < 1
42 | CC(=O)Oc1ccccc1C(=O)O[C@H]1CO[C@H]2[C@@H]1OC[C@H]2OC(=O)c1ccc(C#N)cc1 | < 0.5
43 | CCC(=O)O[C@@H]1CO[C@H]2[C@@H]1OC[C@@H]2OC(=O)c1ccccc1OC(C)=O | 7
44 | CC(=O)Oc1ccccc1C(=O)O[C@H]1CO[C@H]2[C@@H]1OC[C@H]2O | < 0.5
45 | COc1cccc(C(=O)O[C@@H]2CO[C@H]3[C@@H]2OC[C@@H]3OC(=O)c2ccccc2OC(C)=O)c1 | 17
46 | CC(=O)Oc1ccccc1C(=O)O[C@H]1CO[C@H]2[C@@H]1OC[C@H]2OC(=O)c1ccccc1OC(=O)c1ccccc1 | 19
47 | CC(=O)Oc1ccccc1C(=O)O[C@H]1CO[C@H]2[C@@H]1OC[C@H]2OC(=O)C1CC1 | < 0.5
48 | CC(=O)Oc1ccccc1C(=O)O[C@H]1CO[C@H]2[C@@H]1OC[C@H]2OC(=O)c1ccc(C)cc1 | 14.7
49 | CC(=O)Oc1ccccc1C(=O)O[C@H]1CO[C@H]2[C@@H]1OC[C@H]2OC(=O)c1ccc(-c2ccccc2)cc1 | < 0.5
50 | COc1ccccc1C(=O)O[C@@H]1CO[C@H]2[C@@H]1OC[C@@H]2OC(=O)c1ccccc1OC(C)=O | 7
51 | CC(=O)Oc1ccccc1C(=O)O[C@H]1CO[C@H]2[C@@H]1OC[C@H]2OC(=O)c1cc(C)nc(Cl)c1 | 14
52 | CC(=O)Oc1ccccc1C(=O)O[C@H]1CO[C@H]2[C@@H]1OC[C@H]2OC(=O)c1ccccc1O | 85
53 | CC(=O)Oc1ccccc1C(=O)O[C@H]1CO[C@H]2[C@@H]1OC[C@H]2OC(=O)c1cccc(CO[N+](=O)[O-])c1 | 55

System: not listed separately
Experiment: Antiplatelets aggregatory activity in human platelets rich plasma assessed as inhibition of collagen-induced platelets aggregation by aggregometry
Format: functional, cell-free
Settings: Platelet

Row | Structure (SMILES) | IC50 [µM]
54 | CC(=O)Oc1ccccc1C(=O)O[C@H]1CO[C@H]2[C@@H]1OC[C@H]2OC(=O)c1ccccc1CO[N+](=O)[O-] | 90.3
55 | CC(=O)Oc1ccccc1C(=O)O[C@H]1CO[C@H]2[C@@H]1OC[C@H]2OC(=O)c1ccc(CO[N+](=O)[O-])cc1 | > 300
56 | CC(=O)Oc1ccccc1C(=O)O[C@H]1CO[C@H]2[C@@H]1OC[C@H]2OC(=O)c1ccccc1O | 20.6
57 | CC(=O)Oc1ccccc1C(=O)O[C@H]1CO[C@H]2[C@@H]1OC[C@H]2OC(=O)c1cccc(CO[N+](=O)[O-])c1 | 17.1

System: Platelet
Experiment: Antiplatelets aggregatory activity in human platelets rich plasma assessed as inhibition of ADP-induced platelets aggregation by aggregometry in presence of […] ODQ
Format: functional, cell-free
Settings: not given

Row | Structure (SMILES) | inhibition
58 | CC(=O)Oc1ccccc1C(=O)O[C@H]1CO[C@H]2[C@@H]1OC[C@H]2OC(=O)c1cccc(CO[N+](=O)[O-])c1 | inactive

System: Platelet
Experiment: Antiplatelets aggregatory activity in washed human platelets assessed as inhibition of ADP-induced platelets aggregation by aggregometry in presence of glutathione
Format: functional, cell-based
Settings: not given

Row | Structure (SMILES) | inhibition
59 | CC(=O)Oc1ccccc1C(=O)O[C@H]1CO[C@H]2[C@@H]1OC[C@H]2OC(=O)c1cccc(CO[N+](=O)[O-])c1 | Active

System: Platelet
Experiment: Antiplatelets aggregatory activity in washed human platelets assessed as inhibition of ADP-induced platelets aggregation by aggregometry in presence of glutathione and ODQ
Format: functional, cell-based
Settings: not given

Row | Structure (SMILES) | inhibition
60 | CC(=O)Oc1ccccc1C(=O)O[C@H]1CO[C@H]2[C@@H]1OC[C@H]2OC(=O)c1cccc(CO[N+](=O)[O-])c1 | inactive

System: not listed separately
Experiment: Metabolic stability in 50% human plasma assessed as half life at pH 7.4 by RP-HPLC
Settings: not given

Row | Structure (SMILES) | half-life [min]
61 | CC(=O)Oc1ccccc1C(=O)O[C@H]1CO[C@H]2[C@@H]1OC[C@H]2OC(=O)c1cccc(O)c1 | 0.9
62 | CC(=O)Oc1ccccc1C(=O)O[C@H]1CO[C@H]2[C@@H]1OC[C@H]2OC(=O)c1cnccc1Cl | 1.93
63 | CC(=O)Oc1ccccc1C(=O)O[C@H]1CO[C@H]2[C@@H]1OC[C@H]2OC(=O)c1cccnc1 | 0.37
64 | CC(=O)Oc1ccccc1C(=O)O[C@H]1CO[C@H]2[C@@H]1OC[C@H]2OC(=O)c1ccccc1CO[N+](=O)[O-] | 3.2
65 | CC(=O)Oc1ccccc1C(=O)O[C@H]1CO[C@H]2[C@@H]1OC[C@H]2OC(=O)c1ccc(CO[N+](=O)[O-])cc1 | 2.4
66 | CC(=O)Oc1ccccc1C(=O)O[C@H]1CO[C@H]2[C@@H]1OC[C@H]2OC(=O)c1ccc(C#N)cc1 | 4.08
67 | CCC(=O)O[C@@H]1CO[C@H]2[C@@H]1OC[C@@H]2OC(=O)c1ccccc1OC(C)=O | 0.66
68 | CC(=O)Oc1ccccc1C(=O)O[C@H]1CO[C@H]2[C@@H]1OC[C@H]2O | 1.1
69 | COc1cccc(C(=O)O[C@@H]2CO[C@H]3[C@@H]2OC[C@@H]3OC(=O)c2ccccc2OC(C)=O)c1 | 0.85
70 | CC(=O)Oc1ccccc1C(=O)O[C@H]1CO[C@H]2[C@@H]1OC[C@H]2OC(=O)c1ccccc1OC(=O)c1ccccc1 | 4.33
71 | CC(=O)Oc1ccccc1C(=O)O[C@H]1CO[C@H]2[C@@H]1OC[C@H]2OC(=O)C1CC1 | 0.9
72 | CC(=O)Oc1ccccc1C(=O)O[C@H]1CO[C@H]2[C@@H]1OC[C@H]2OC(=O)c1ccc(C)cc1 | 2.17
73 | CC(=O)Oc1ccccc1C(=O)O[C@H]1CO[C@H]2[C@@H]1OC[C@H]2OC(=O)c1ccc(-c2ccccc2)cc1 | > 20
74 | COc1ccccc1C(=O)O[C@@H]1CO[C@H]2[C@@H]1OC[C@@H]2OC(=O)c1ccccc1OC(C)=O | 0.99
75 | CC(=O)Oc1ccccc1C(=O)O[C@H]1CO[C@H]2[C@@H]1OC[C@H]2OC(=O)c1cc(C)nc(Cl)c1 | 1.16
76 | CC(=O)Oc1ccccc1C(=O)O[C@H]1CO[C@H]2[C@@H]1OC[C@H]2OC(=O)c1ccccc1O | 1.14
77 | CC(=O)Oc1ccccc1C(=O)O[C@H]1CO[C@H]2[C@@H]1OC[C@H]2OC(=O)c1cccc(CO[N+](=O)[O-])c1 | 2.7
